Data published in PubChem BioAssay (NCI).
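Each compound was tested at five concentrations against cells in 96-well plates for 48 hours. Here, GI50 denotes the concentration required for 50% inhibition of growth. TGI is the concentration that stops growth completely.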

Experiments:
Assay in all cases: inhibition of tumour cell growth, NCI panel, 48 h
[1] = tested on: SK-MEL-28 melanoma
[2] = tested on: PC-3 prostate
[3] = tested on: KM12 colon
[4] = tested on: BT-549 breast
[5] = tested on: HCC-2998 colon
[6] = tested on: NCI-H23 lung
[7] = tested on: SF-539 CNS
[8] = tested on: HT29 colon
[9] = tested on: CCRF-CEM leukemia
[10] = tested on: NCI/ADR-RES ovarian
[11] = tested on: RPMI-8226 leukemia
[12] = tested on: CAKI-1 renal
[13] = tested on: SK-MEL-2 melanoma
[14] = tested on: TK-10 renal
[15] = tested on: OVCAR-8 ovarian
[16] = tested on: MDA-MB-468 breast
[17] = tested on: SF-268 CNS
[18] = tested on: MDA-MB-435
[19] = tested on: OVCAR-4 ovarian
[20] = tested on: RXF 393 renal
[21] = tested on: MOLT-4 leukemia
[22] = tested on: SK-MEL-5 melanoma
[23] = tested on: ACHN renal
[24] = tested on: UACC-62 melanoma
[25] = tested on: HCT-116 colon
[26] = tested on: SNB-75 CNS
[27] = tested on: EKVX NSCLC
[28] = tested on: HCT-15 colon
[29] = tested on: OVCAR-5 ovarian
[30] = tested on: NCI-H460 lung
[31] = tested on: MCF7 breast
[32] = tested on: SF-295 CNS
[33] = tested on: COLO 205 colon
[34] = tested on: NCI-H226 lung
[35] = tested on: IGROV1 ovarian
[36] = tested on: SN12C renal
[37] = tested on: LOX IMVI melanoma
[38] = tested on: U251 CNS
[39] = tested on: K-562 leukemia
[40] = tested on: A498 renal
[41] = tested on: SR leukemia
[42] = tested on: DU-145 prostate
[43] = tested on: M14 melanoma
[44] = tested on: NCI-H522 lung
[45] = tested on: HS 578T breast
[46] = tested on: HL-60(TB) leukemia
[47] = tested on: HOP-92 NSCLC
[48] = tested on: UO-31 renal
[49] = tested on: UACC-257 melanoma
[50] = tested on: A549 NSCLC
[51] = tested on: SNB-19 CNS
[52] = tested on: HOP-62 NSCLC
[53] = tested on: SK-OV-3 ovarian
[54] = tested on: T-47D breast
[55] = tested on: MALME-3M melanoma
[56] = tested on: 786-0 renal
[57] = tested on: OVCAR-3 ovarian
[58] = tested on: MDA-MB-231 breast

With `CC1=C2C(=C[C@@](C)(COCOCCCl)[C@@H]2O)C(=O)[C@](C)(O)C12CC2` as the molecule, how does the GI50 [1] read?
The GI50 was 389 nM.

What about the TGI [1] of the same molecule?
Its TGI is 1310 nM.

And the GI50 [2]?
Its GI50 is 230 nM.

And the GI50 [3]?
The GI50 was 350 nM.

And the TGI [3]?
Its TGI is 4830 nM.

What about the GI50 [4] of the same molecule?
Its GI50 is 243 nM.

And the TGI [4]?
Its TGI is 786 nM.

What about the GI50 [5] of the same molecule?
Its GI50 is 199 nM.

What about the TGI [5] of the same molecule?
Its TGI is 495 nM.

What about the GI50 [6] of the same molecule?
Its GI50 is 105 nM.

What about the TGI [6] of the same molecule?
Its TGI is 304 nM.

And the GI50 [7]?
The GI50 was 202 nM.

And the TGI [7]?
Its TGI is 447 nM.

And the GI50 [8]?
Its GI50 is 174 nM.

What about the GI50 [9] of the same molecule?
The GI50 was 626 nM.

What about the TGI [9] of the same molecule?
Its TGI is over 33800 nM.

And the GI50 [10]?
Its GI50 is 160 nM.

What about the TGI [10] of the same molecule?
The TGI was 438 nM.

And the GI50 [11]?
Its GI50 is 3750 nM.

And the TGI [11]?
The TGI was over 58300 nM.

And the GI50 [12]?
Its GI50 is 263 nM.

And the TGI [12]?
The TGI was 2100 nM.

And the GI50 [13]?
The GI50 was 184 nM.

What about the TGI [13] of the same molecule?
The TGI was 350 nM.

And the GI50 [14]?
Its GI50 is 429 nM.

What about the GI50 [15] of the same molecule?
Its GI50 is 211 nM.

And the TGI [15]?
The TGI was 790 nM.

What about the GI50 [16] of the same molecule?
Its GI50 is 123 nM.

What about the TGI [16] of the same molecule?
The TGI was 299 nM.

What about the GI50 [17] of the same molecule?
Its GI50 is 305 nM.

What about the TGI [17] of the same molecule?
Its TGI is 1700 nM.

And the GI50 [18]?
Its GI50 is 322 nM.

And the TGI [18]?
The TGI was 1090 nM.

What about the GI50 [19] of the same molecule?
The GI50 was 265 nM.

What about the TGI [19] of the same molecule?
The TGI was 860 nM.

What about the GI50 [20] of the same molecule?
Its GI50 is 154 nM.

What about the TGI [20] of the same molecule?
Its TGI is 351 nM.

What about the GI50 [21] of the same molecule?
The GI50 was 141 nM.

What about the TGI [21] of the same molecule?
Its TGI is over 48300 nM.

What about the GI50 [22] of the same molecule?
The GI50 was 209 nM.

What about the TGI [22] of the same molecule?
Its TGI is 499 nM.

And the GI50 [23]?
Its GI50 is 55.4 nM.

And the TGI [23]?
The TGI was 387 nM.

And the GI50 [24]?
Its GI50 is 198 nM.

And the TGI [24]?
The TGI was 429 nM.

And the GI50 [25]?
Its GI50 is 128 nM.

And the TGI [25]?
Its TGI is over 41500 nM.

What about the GI50 [26] of the same molecule?
The GI50 was 241 nM.

What about the TGI [26] of the same molecule?
The TGI was 1250 nM.

What about the GI50 [27] of the same molecule?
Its GI50 is 285 nM.

And the TGI [27]?
The TGI was 870 nM.

And the GI50 [28]?
The GI50 was 64.4 nM.

What about the TGI [28] of the same molecule?
The TGI was 2550 nM.

What about the GI50 [29] of the same molecule?
Its GI50 is 178 nM.

And the TGI [29]?
The TGI was 1070 nM.

And the GI50 [30]?
Its GI50 is 113 nM.

And the TGI [30]?
Its TGI is 656 nM.

And the GI50 [31]?
Its GI50 is 45 nM.

And the TGI [31]?
Its TGI is 3180 nM.

And the GI50 [32]?
Its GI50 is 234 nM.

What about the TGI [32] of the same molecule?
The TGI was 7760 nM.

And the GI50 [33]?
Its GI50 is 258 nM.

What about the TGI [33] of the same molecule?
Its TGI is 924 nM.

What about the GI50 [34] of the same molecule?
Its GI50 is 845 nM.

And the TGI [34]?
Its TGI is 4010 nM.

And the GI50 [35]?
Its GI50 is 229 nM.

And the TGI [35]?
Its TGI is 961 nM.

And the GI50 [36]?
The GI50 was 299 nM.

And the TGI [36]?
Its TGI is 1200 nM.

And the GI50 [37]?
The GI50 was 137 nM.

What about the TGI [37] of the same molecule?
The TGI was 493 nM.

And the GI50 [38]?
The GI50 was 113 nM.

And the TGI [38]?
The TGI was 19900 nM.

What about the GI50 [39] of the same molecule?
Its GI50 is 445 nM.

And the TGI [39]?
Its TGI is over 100000 nM.

And the GI50 [40]?
Its GI50 is 1610 nM.

What about the TGI [40] of the same molecule?
The TGI was 4990 nM.

And the GI50 [41]?
Its GI50 is 64.7 nM.

What about the TGI [41] of the same molecule?
Its TGI is over 100000 nM.

What about the GI50 [42] of the same molecule?
The GI50 was 142 nM.

And the TGI [42]?
Its TGI is 1510 nM.

And the GI50 [43]?
The GI50 was 285 nM.

What about the TGI [43] of the same molecule?
Its TGI is 990 nM.

And the GI50 [44]?
The GI50 was 184 nM.

What about the TGI [44] of the same molecule?
Its TGI is 495 nM.

And the GI50 [45]?
The GI50 was 598 nM.

What about the TGI [45] of the same molecule?
The TGI was 4000 nM.

And the GI50 [46]?
The GI50 was 126 nM.

What about the TGI [46] of the same molecule?
Its TGI is 2130 nM.

And the GI50 [47]?
Its GI50 is 248 nM.

And the TGI [47]?
Its TGI is 685 nM.

And the GI50 [48]?
The GI50 was 186 nM.

What about the TGI [48] of the same molecule?
Its TGI is 549 nM.

And the GI50 [49]?
The GI50 was 647 nM.

What about the TGI [49] of the same molecule?
Its TGI is 3970 nM.

And the GI50 [50]?
The GI50 was 322 nM.

And the TGI [50]?
The TGI was 6860 nM.

And the GI50 [51]?
The GI50 was 346 nM.

And the TGI [51]?
The TGI was 2460 nM.

And the GI50 [52]?
The GI50 was 344 nM.

And the TGI [52]?
Its TGI is 1880 nM.

What about the GI50 [53] of the same molecule?
The GI50 was 415 nM.

What about the TGI [53] of the same molecule?
The TGI was 2170 nM.

What about the GI50 [54] of the same molecule?
Its GI50 is 506 nM.

And the TGI [54]?
The TGI was 5690 nM.

What about the GI50 [55] of the same molecule?
The GI50 was 229 nM.

And the TGI [55]?
Its TGI is 509 nM.

What about the GI50 [56] of the same molecule?
The GI50 was 638 nM.

And the TGI [56]?
The TGI was 1980 nM.

What about the GI50 [57] of the same molecule?
The GI50 was 265 nM.

And the TGI [57]?
Its TGI is 765 nM.

And the GI50 [58]?
The GI50 was 294 nM.

What about the TGI [58] of the same molecule?
Its TGI is 1030 nM.
